Laboratory results reported in patent US4574080A, “Combination formulation” (A/S Alfred Benzon, priority 1982, dated 1986).

Assays:
[1] = Adhesion of clopamide to (film-coated) potassium chloride crystals after dry coating / mechanical stress; format: physicochemical; conditions: for A: amount of clopamide adhered immediately after the dry coating / B: clopamide adhered per dose of finished granulate / C: clopamide removed during mixing of the granulate (A-B): Table 2, Talc 2.0 ×
Method: A sample containing film-coated KCl-crystals with clopamide adhered to the surface was placed on a sieve.
The sieve and sample were shaken (Pascal sieve, model 1) for 15 minutes. The quantity of clopamide adhered to the film-coated crystals was then determined as described under Content Uniformity (clopamide)
The amount of clopamide adhered was determined as described under MATERIALS AND METHODS. In Table 1, the influence of the anti-adhesive and the coating time on the adhesion tendency of clopamide is shown.
As a considerable amount of the clopamide (about 20%) is removed by the admixture of the necessary auxiliary materials for the tabletting process (vide Table 1), it was examined whether a more gentle, but more laborious method in which the auxiliary materials are premixed separately, thus reducing the final mixing time, would reduce this removal.
The examinations were carried out as described above for the examination of the adhesion tendency of clopamide, and the amount of clopamide adhered was again determined as described under MATERIALS AND METHODS; the dry coating time was 60 minutes. The results are shown in Table 3 wherein A, B and C are as described above, and D designates the relative amount of adhered clopamide abrased during the final mixing [formula]

[2] = Diuretic effect (urine volume) in healthy subjects; format: in vivo, human (healthy subjects); conditions: clopamide 20 mg
Method: Complete balanced cross-over study with single dose administration.
Blood samples were collected 36 hours and urine samples 24 hours after administration.
10 healthy subjects without any history of renal, hepatic, gastrointestinal or heart disease.
Clopamide 20 mg and potassium chloride 2400 mg (32 mEq):
Two days before drug administration and throughout the test days the volunteers were kept on a low potassium diet (less than 30 mEq) and a standardized calorie intake of about 2000 kcal per day. No tea, coffee or alcohol was allowed. For the individual person the diet was identical on all six test days (2 period of 3 days).
The day before drug aministration the volunteers were given 100 ml water every hour from 09.00 a.m. during the next 12 hours, i.e. 1300 ml water per day. The same procedure was followed on the test day.
Blood samples were drawn before dosing and 1, 2, 3, 4, 6, 8, 12, 24 and 36 hours after. Urine was collected quantitatively 24 hours before drug administration and 24 hours after in aliquots: 0-1 h, 1-2 h, 2-3 h, 3-4 h, 4-6 h, 6-8 h, 8-12 h, and 12-24 h.
Data which fulfil the requirement for using parametric tests were analyzed by a three-way analysis of variance, splitting the total variation up into variations between subjects, treatment periods, treatment and residual. Logarithmic transformations of the variables have been used in appropriate cases.

[3] = Colloidal silicon dioxide 0.13 × the amount of clopamide, coating time 10 min
[4] = Colloidal silicon dioxide 0.13 × the amount of clopamide, coating time 30 min
[5] = Colloidal silicon dioxide 0.13 × the amount of clopamide, coating time 60 min
[6] = gentle admixture of auxiliary materials (5 min), coating time 60 min
[7] = usual admixture of auxiliary materials (11 min), coating time 60 min
[8] = Talc 2.0 × the amount of clopamide, coating time 10 min
[9] = Talc 2.0 × the amount of clopamide, coating time 30 min
[10] = Talc 2.0 × the amount of clopamide, coating time 60 min
[11] = Talc […] the amount of clopamide, coating time 10 min
[12] = Talc […] the amount of clopamide, coating time 30 min
[13] = Talc […] the amount of clopamide, coating time 60 min
[14] = treatment days compared to control days

C[C@@H]1CCC[C@H](C)N1NC(=O)c1ccc(Cl)c(S(N)(=O)=O)c1 [Clopamide, 4-chloro-N--(cis-2,6-dimethylpiperidino)-3-sulfamoyl-benzamide]
A: amount of clopamide adhered in percent of the theoretical dose immediately after the dry coating [1, 3]: 70.4% | B: percentage of the theoretical dose of clopamide adhered per dose of finished granulate [1, 3]: 60.2% | C: percentage of a dose of clopamide removed during the mixing of the granulate (A-B) [1, 3]: 10.2% | A: amount of clopamide adhered in percent of the theoretical dose immediately after the dry coating [1, 4]: 75.2% | B: percentage of the theoretical dose of clopamide adhered per dose of finished granulate [1, 4]: 58.8% | C: percentage of a dose of clopamide removed during the mixing of the granulate (A-B) [1, 4]: 16.4% | A: amount of clopamide adhered in percent of the theoretical dose immediately after the dry coating [1, 5]: 85.8% | B: percentage of the theoretical dose of clopamide adhered per dose of finished granulate [1, 5]: 66.6% | C: percentage of a dose of clopamide removed during the mixing of the granulate (A-B) [1, 5]: 19.2% | A: amount of clopamide adhered immediately after the dry coating [1, 6]: 83.0% | B: clopamide adhered per dose of finished granulate [1, 6]: 70.0% | C: clopamide removed during mixing of the granulate (A-B) [1, 6]: 13.0% | A: amount of clopamide adhered immediately after the dry coating [1, 7]: 86.2% | B: clopamide adhered per dose of finished granulate [1, 7]: 70.6% | C: clopamide removed during mixing of the granulate (A-B) [1, 7]: 15.6% | A: amount of clopamide adhered in percent of the theoretical dose immediately after the dry coating [1, 8]: 76.4% | B: percentage of the theoretical dose of clopamide adhered per dose of finished granulate [1, 8]: 53.8% | C: percentage of a dose of clopamide removed during the mixing of the granulate (A-B) [1, 8]: 22.6% | A: amount of clopamide adhered in percent of the theoretical dose immediately after the dry coating [1, 9]: 87.6% | B: percentage of the theoretical dose of clopamide adhered per dose of finished granulate [1, 9]: 65.4% | C: percentage of a dose of clopamide removed during the mixing of the granulate (A-B) [1, 9]: 22.2% | A: amount of clopamide adhered in percent of the theoretical dose immediately after the dry coating [1, 10]: 86.2% | B: percentage of the theoretical dose of clopamide adhered per dose of finished granulate [1, 10]: 70.6% | C: percentage of a dose of clopamide removed during the mixing of the granulate (A-B) [1, 10]: 15.6% | A: amount of clopamide adhered in percent of the theoretical dose immediately after the dry coating [1, 11]: 96.4% | B: percentage of the theoretical dose of clopamide adhered per dose of finished granulate [1, 11]: 65.0% | C: percentage of a dose of clopamide removed during the mixing of the granulate (A-B) [1, 11]: 31.4% | A: amount of clopamide adhered in percent of the theoretical dose immediately after the dry coating [1, 12]: 88.4% | B: percentage of the theoretical dose of clopamide adhered per dose of finished granulate [1, 12]: 69.8% | C: percentage of a dose of clopamide removed during the mixing of the granulate (A-B) [1, 12]: 18.6% | A: amount of clopamide adhered in percent of the theoretical dose immediately after the dry coating [1, 13]: 100.2% | B: percentage of the theoretical dose of clopamide adhered per dose of finished granulate [1, 13]: 78.6% | C: percentage of a dose of clopamide removed during the mixing of the granulate (A-B) [1, 13]: 21.6% | effect of increased coating time on adhesion (in words) ([1]; talc as anti-adhesive): not only an increased adhesion, but also a more resistant adhesion | amount of clopamide removed by the admixture of the auxiliary materials ([1]; vide Table 1): about 20% | total 24 h urine, percent of that of control days ([2]; 95% CI 138.9 to 185.3%): 160.4% | 24 hours urine volume (in words) [2, 14]: statistically significant increase | hourly maximal urine volume (in words) [2, 14]: statistically significant increase
